This is an account of results in PMC6556873, “Rapid Covalent-Probe Discovery by Electrophile-Fragment Screening” (Journal of the American Chemical Society, 2019).

Molecules are shown by their SMILES. Like-named read-outs stand apart in the source and are kept apart here.

The target of series [1] is T1, BSA (Bos taurus, UniProt P02769).
T1 construct: gene ALB
Also noted: Intact protein LC/MS covalent labelling, fragments in pools of five, 200 uM each, 4 °C. The following applies: 24 h, 4 °C, pool of five; 200 µM; covalent.

For series [2], the target named is T2, NUDT7 (Homo sapiens, UniProt P0C024).
T2 construct: residues 14-235, E. coli, pNIC28-Bsa4, N-terminal His6 tag removed by TEV, construct 26672 Da
Also noted: Intact protein LC/MS covalent labelling, fragments in pools of five, 200 uM each, 4 °C. The following applies: 24 h, 4 °C, pool of five; 200 µM; covalent.

For series [3], the target named is T3, OTUB2 (OTUB2A) (Homo sapiens, UniProt Q96DC9).
T3 construct: full length residues 1-234, E. coli BL21(DE3)-R3, His tag removed by TEV, construct 27312 Da
T3 sequence (Q96DC9 1-234): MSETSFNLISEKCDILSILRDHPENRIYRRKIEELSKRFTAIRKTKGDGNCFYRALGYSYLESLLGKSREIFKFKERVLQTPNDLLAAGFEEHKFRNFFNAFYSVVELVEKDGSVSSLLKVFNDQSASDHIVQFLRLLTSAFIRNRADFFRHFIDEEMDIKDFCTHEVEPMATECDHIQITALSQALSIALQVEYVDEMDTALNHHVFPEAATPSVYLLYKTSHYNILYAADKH
Also noted: Intact protein LC/MS covalent labelling, fragments in pools of five, 200 uM each, 4 °C. The following applies: 24 h, 4 °C, pool of five; 200 µM; covalent.

The target in series [4] is T4, PCAF (Homo sapiens, UniProt Q92831).
T4 construct: gene KAT2B
Also noted: Intact protein LC/MS covalent labelling, fragments in pools of five, 200 uM each, 4 °C. The following applies: 24 h, 4 °C, pool of five; 200 µM; covalent.

Series [5] in a line: in vitro. The following applies: human, hb2 cells, read-out: HB-2 Cells Viability (%). Also noted: species or system CCD841, HEK293.
Series [6] in a line: in vitro. Also on record: species or system HB2, HEK293. The following applies: human, ccd841 cells.
Series [7] in a line: in vitro. Also on record: species or system HB2, CCD841. The following applies: human, hek293 cells.

T4 sequence (Q92831 whole entry): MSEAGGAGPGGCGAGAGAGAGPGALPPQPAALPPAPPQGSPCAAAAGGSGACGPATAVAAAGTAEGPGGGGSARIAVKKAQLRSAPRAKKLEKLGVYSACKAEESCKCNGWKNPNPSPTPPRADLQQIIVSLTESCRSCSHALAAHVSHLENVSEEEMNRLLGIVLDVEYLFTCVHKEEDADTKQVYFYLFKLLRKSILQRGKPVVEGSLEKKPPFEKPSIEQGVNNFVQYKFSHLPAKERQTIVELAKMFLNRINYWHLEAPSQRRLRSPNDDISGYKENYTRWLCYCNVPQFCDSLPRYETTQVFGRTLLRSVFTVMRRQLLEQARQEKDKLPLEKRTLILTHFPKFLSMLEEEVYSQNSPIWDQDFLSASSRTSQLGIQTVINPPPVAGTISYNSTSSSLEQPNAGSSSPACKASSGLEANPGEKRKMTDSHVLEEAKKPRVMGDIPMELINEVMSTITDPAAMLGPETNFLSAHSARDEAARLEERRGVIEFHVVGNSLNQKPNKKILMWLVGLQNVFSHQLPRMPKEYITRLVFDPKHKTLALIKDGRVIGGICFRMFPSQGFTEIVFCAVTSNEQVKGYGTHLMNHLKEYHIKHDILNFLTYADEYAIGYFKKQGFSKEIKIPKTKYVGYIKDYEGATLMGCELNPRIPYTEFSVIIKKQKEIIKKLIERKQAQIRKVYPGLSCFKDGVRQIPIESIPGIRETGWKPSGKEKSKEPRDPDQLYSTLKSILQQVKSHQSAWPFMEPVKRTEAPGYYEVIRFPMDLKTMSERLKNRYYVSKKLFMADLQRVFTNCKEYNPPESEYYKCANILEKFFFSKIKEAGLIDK
T2 sequence (P0C024 14-235): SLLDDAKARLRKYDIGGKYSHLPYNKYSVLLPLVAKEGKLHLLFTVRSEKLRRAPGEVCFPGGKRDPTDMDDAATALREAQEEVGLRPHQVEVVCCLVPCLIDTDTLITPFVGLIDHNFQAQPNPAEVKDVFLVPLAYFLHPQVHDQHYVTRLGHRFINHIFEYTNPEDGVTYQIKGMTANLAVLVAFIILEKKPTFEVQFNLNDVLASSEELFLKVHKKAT
T1 sequence (P02769 whole entry): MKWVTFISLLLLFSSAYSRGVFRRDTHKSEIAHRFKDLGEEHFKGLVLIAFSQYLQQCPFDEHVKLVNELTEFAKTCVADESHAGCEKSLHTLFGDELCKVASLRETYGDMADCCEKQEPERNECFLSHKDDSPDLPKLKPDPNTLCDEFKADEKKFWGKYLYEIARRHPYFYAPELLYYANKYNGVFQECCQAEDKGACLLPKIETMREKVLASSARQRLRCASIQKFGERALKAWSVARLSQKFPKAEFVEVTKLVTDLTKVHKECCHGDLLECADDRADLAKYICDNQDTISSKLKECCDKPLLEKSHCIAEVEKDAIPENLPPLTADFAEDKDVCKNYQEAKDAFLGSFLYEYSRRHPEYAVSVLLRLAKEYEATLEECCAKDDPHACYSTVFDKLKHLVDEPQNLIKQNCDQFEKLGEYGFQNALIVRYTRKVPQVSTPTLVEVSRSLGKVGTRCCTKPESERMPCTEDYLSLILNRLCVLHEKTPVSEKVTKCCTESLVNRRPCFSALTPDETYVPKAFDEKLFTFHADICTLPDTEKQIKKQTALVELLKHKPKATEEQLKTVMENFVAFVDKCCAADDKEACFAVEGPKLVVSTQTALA

The molecule `C=CC(=O)NC(=O)NCc1ccccc1` [PCM-0102834] returned a BSA in series [1] of 0. The NUDT7 in series [2] came out at 0.35. This molecule yielded an OTUB2 in series [3] of 0. The molecule further registered a PCAF in series [4] of 0. Also, the viability at 48 h, 10 µM was determined as 23% in series [5], 57.4% in series [6] and 17.9% in series [7].
With `Cc1ccc([N+](=O)[O-])cc1NC(=O)CCl` [PCM-0102098], in series [1], the BSA is recorded as 0. In addition, the NUDT7 in series [2] is given as 0.12. The OTUB2 in series [3] was found to be 0.33. The molecule further displayed a PCAF in series [4] of 0. For the same molecule, the results for the viability at 48 h, 10 µM in series [5], in series [6] and in series [7] were 1.1%, 2% and 1.2%, respectively.
The molecule `C=CC(=O)N1CCCC(NS(C)(=O)=O)C1` (stereo not drawn) [PCM-0102522] gave a BSA in series [1] of 0. In addition, the NUDT7 in series [2] is 0. The molecule further gave an OTUB2 in series [3] of 0. The PCAF in series [4] is recorded as 0. Also, the viability at 48 h, 10 µM in series [5] turned out to be 106%; in series [6] it was 112%; in series [7], 106%.
`Cc1cc([N+](=O)[O-])ccc1NC(=O)CCl` [PCM-0102134] displayed a BSA in series [1] of 0. The NUDT7 in series [2] is listed as 0.1. For the same molecule, the OTUB2 in series [3] is recorded as 0.11. The PCAF in series [4] worked out at 0. The viability at 48 h, 10 µM stood at 44.3% in series [5], 60.9% in series [6] and 18.1% in series [7].
Molecule `CC(C)(C)OC(=O)CNC(=O)CCl` [PCM-0102981] came in with a BSA in series [1] of 0.18. The same molecule returned an NUDT7 in series [2] of 0. Also, the OTUB2 in series [3] is listed as 0. This molecule also returned a PCAF in series [4] of 0. Also, the viability at 48 h, 10 µM in series [5] was 106%; in series [6], 109%; in series [7], 106%.
As to `O=C(CCl)Nc1cc(Cl)ccc1C(=O)O` [PCM-0102412], in series [1], the BSA is reported as 0. In addition, the NUDT7 in series [2] is reported as 0.16. Besides, in series [3], the OTUB2 was 0.07. For the same molecule, the PCAF in series [4] came out at 0. Moreover, the viability at 48 h, 10 µM in series [5] worked out at 99.3%; in series [6] it was 100%; in series [7], 89.4%.
With `O=C(CCl)Nc1ccc(I)cc1` [PCM-0102278], in series [1], the BSA was determined as 0.09. Also, the NUDT7 in series [2] was found to be 0.09. In series [3], this molecule displayed an OTUB2 of 0.24. The PCAF in series [4] came to 0. For the same molecule, the viability at 48 h, 10 µM in series [5] came out at 18.7%; in series [6], 57.1%; in series [7] it was 4.9%.
Take `O=C(CCl)Nc1cccc2c1N=S=N2` [PCM-0102329]: the BSA in series [1] is reported as 0. Moreover, in series [2], the NUDT7 came to 0. The same molecule gave an OTUB2 in series [3] of 0. The molecule also gave a PCAF in series [4] of 0. The values for the viability at 48 h, 10 µM in series [5], in series [6] and in series [7] were 38.2%, 50.1% and 19.9%, respectively.
`CC1CN(c2ccc(NC(=O)CCl)cc2)CC(C)O1` (stereo not drawn) [PCM-0102750]: the BSA in series [1] came out at 0. In addition, the NUDT7 in series [2] turned out to be 0. This molecule also showed an OTUB2 in series [3] of 0.24. This molecule also came in with a PCAF in series [4] of 0. Moreover, the viability at 48 h, 10 µM in series [5] amounted to 65.9%; in series [6], 64.7%; in series [7] it was 52.7%.
Turning to `O=C(CCl)Nc1cccc(-c2nnc3n2CCCCC3)c1` [PCM-0102181], in series [1], the BSA is given as 0. Further, the NUDT7 in series [2] is on record as 0. This molecule returned an OTUB2 in series [3] of 0. In series [4], this molecule displayed a PCAF of 0. Besides, the results for the viability at 48 h, 10 µM in series [5], in series [6] and in series [7] were 51.2%, 73.2% and 39.2%, respectively.
`Cl.O=C(CCl)N1CCN(Cc2c(F)cccc2Cl)CC1` [PCM-0102137]: in series [1], the BSA amounted to 0. In series [2], this molecule returned an NUDT7 of 0. The OTUB2 in series [3] turned out to be 0. The same molecule came in with a PCAF in series [4] of 0. Besides, the viability at 48 h, 10 µM in series [5] turned out to be 20.8%; in series [6], 59.5%; in series [7] it was 25.8%.
On to `C=CC(=O)NC(O)C(Cl)(Cl)Cl` (stereo not drawn) [PCM-0102963], for which the BSA in series [1] was determined as 0. In addition, the NUDT7 in series [2] turned out to be 0. For the same molecule, the OTUB2 in series [3] is 0. Also, the PCAF in series [4] came to 0. The viability at 48 h, 10 µM worked out at 102% in series [5], 89.7% in series [6] and 94.7% in series [7].
`CC(NC(=O)CCl)c1cccs1` (stereo not drawn) [PCM-0102180]: in series [1], the BSA stood at 0.24. The NUDT7 in series [2] is 0.16. In series [3], this molecule had an OTUB2 of 0.55. In series [4], the PCAF is recorded as 0. In addition, the values for the viability at 48 h, 10 µM in series [5], in series [6] and in series [7] were 93.5%, 78.5% and 75.1%, respectively.
In series [1], `O=C(CCl)NCC1Cc2ccccc2O1` (stereo not drawn) [PCM-0103020] registered a BSA of 0. Moreover, the NUDT7 in series [2] worked out at 0. Also, in series [3], the OTUB2 came out at 0. The PCAF in series [4] worked out at 0. Moreover, the viability at 48 h, 10 µM came to 99.1% in series [5], 88.9% in series [6] and 87.1% in series [7].
In series [1], `CCc1cc(C(=O)NNC(=O)CCl)sc1C` [PCM-0102300] displayed a BSA of 0. The NUDT7 in series [2] came to 0.11. The same molecule returned an OTUB2 in series [3] of 0.83. Moreover, the PCAF in series [4] worked out at 0. Also, the viability at 48 h, 10 µM is 45.9% in series [5], 74.3% in series [6] and 75.8% in series [7].
In series [1], `Cc1nnc(NC(=O)CCl)o1` [PCM-0102147] had a BSA of 0. The NUDT7 in series [2] worked out at 0. Moreover, in series [3], the OTUB2 was found to be 0. The same molecule registered a PCAF in series [4] of 0. Moreover, the results for the viability at 48 h, 10 µM in series [5], in series [6] and in series [7] were 102%, 107% and 92.2%, respectively.
Molecule `C=CC(=O)N1CCN(C(=O)C23CC4CC(CC(C4)C2)C3)CC1` [PCM-0102682] registered a BSA in series [1] of 0. In series [2], this molecule registered an NUDT7 of 0. In addition, the OTUB2 in series [3] is recorded as 0. The PCAF in series [4] came out at 0. For the same molecule, the viability at 48 h, 10 µM in series [5] worked out at 102%; in series [6] it was 103%; in series [7], 72.7%.
For `O=C(CCl)NC(=O)OCc1ccccc1` [PCM-0102153], in series [1], the BSA is recorded as 0. In addition, the NUDT7 in series [2] is given as 0. The same molecule came in with an OTUB2 in series [3] of 0.79. The molecule also yielded a PCAF in series [4] of 0. The viability at 48 h, 10 µM in series [5] turned out to be 96%; in series [6], 109%; in series [7] it was 82.8%.
In series [1], `O=C(CCl)NC1CCOCC1` [PCM-0103045] gave a BSA of 0. The molecule further yielded an NUDT7 in series [2] of 0. The molecule further gave an OTUB2 in series [3] of 0. The same molecule gave a PCAF in series [4] of 0. The viability at 48 h, 10 µM in series [5] came to 100%; in series [6] it was 77.7%; in series [7] it was 110%.
As for `C=CC(=O)Nc1ccc(F)c(F)c1` [PCM-0102385], the BSA in series [1] is 0. Moreover, the NUDT7 in series [2] is 0. In series [3], this molecule showed an OTUB2 of 0. The molecule further showed a PCAF in series [4] of 0. For the same molecule, the viability at 48 h, 10 µM in series [5] was 104%; in series [6] it was 112%; in series [7], 66.1%.
Turning to `CN(C)C(=O)c1ccc(NC(=O)CCl)cc1` [PCM-0102877], the BSA in series [1] is 0. The NUDT7 in series [2] was determined as 0. The OTUB2 in series [3] came out at 0. Besides, in series [4], the PCAF worked out at 0. For the same molecule, the viability at 48 h, 10 µM was 67.6% in series [5], 61.7% in series [6] and 30.5% in series [7].
On to `CC(NC(=O)CCl)c1cccc2ccccc12` (stereo not drawn) [PCM-0102275], for which, in series [1], the BSA was found to be 0. Besides, the NUDT7 in series [2] was 0.32. This molecule registered an OTUB2 in series [3] of 0.73. The same molecule gave a PCAF in series [4] of 0. For the same molecule, the viability at 48 h, 10 µM in series [5] amounted to 61.6%; in series [6], 70.5%; in series [7], 47.3%.
`CS(C)(=O)=NC(=O)CCl` [PCM-0102969]: the BSA in series [1] is 0. The molecule also had an NUDT7 in series [2] of 0. For the same molecule, the OTUB2 in series [3] came out at 0. The molecule also came in with a PCAF in series [4] of 0. Moreover, the viability at 48 h, 10 µM in series [5] was determined as 96.1%; in series [6], 97.5%; in series [7] it was 102%.
`CC1CCc2c(sc(NC(=O)CCl)c2C#N)C1` (stereo not drawn) [PCM-0102420] gave a BSA in series [1] of 0. The molecule further returned an NUDT7 in series [2] of 0.47. Besides, the OTUB2 in series [3] is given as 0. In series [4], this molecule displayed a PCAF of 0. For the same molecule, the results for the viability at 48 h, 10 µM in series [5], in series [6] and in series [7] were 50.9%, 81.6% and 43.4%, respectively.
